# From patent US20130023485A1, “PARENTERAL FORMULATIONS OF PEPTIDES FOR THE TREATMENT OF SYSTEMATIC LUPUS ERYTHEMATOSUS” (Teva Pharmaceutical Industries, Ltd., priority 2003, published 2013)
# Read-outs that look alike come from different tables or passages of the source.
# Assays:
# SLE subjects = assay: Phase Ib clinical study, multiple s.c. doses, tolerability and safety; format: in vivo, human; conditions: multiple s.c. doses of 0.5, 1 or 2.5 mg in 120 mg Captisol®, 12 injections in 4 weeks
# Protocol: This study is being performed in order to evaluate the safety and tolerability of repeated Compound 1 sc administration to SLE subjects. […] Subjects are monitored on planned visits scheduled at 2, 4, 8 and 12 weeks after start of dosing. Safety and tolerability are evaluated using tests similar to those described in the Phase Ia Clinical Study above.
# [1] = Solubility of Compound 1 with solubility enhancers (visual examination and analytical assay)
# [2] = tested on: PBL of SLE patients stimulated with human 16/6Id mAb; format: cell-based; conditions: for inhibition of proliferative responses to human 16/6Id mAb: PBL of one SLE patient
# Protocol: Cells were then harvested and radioactivity was counted using a β-counter. Results were expressed as mean counts per minute (cpm) of triplicate cultures. Stimulation indices (the ratio of mean cpm at the optimal concentration of 16/6Id to mean cpm without 16/6Id) were then calculated. A stimulation index (SI)≧2 was considered positive. […] Inhibition of above 50% of the proliferative capacity was considered positive. The Table represents the highest positive inhibition capacity for each peptide. […] Both peptides inhibited the proliferation of PBL of 18/19(95%) of responders tested. It can also be seen in the Table that the magnitudes of inhibitions were similar for both peptides. Thus, it can be concluded that peptides based on CDR1 and CDR3 of the human 16/6Id mAb are efficient inhibitors of the proliferation of PBL of SLE patients to the human 16/6Id mAb.
substance,measurement,setting,value
H-GYYWSWIRQPPGKGEEWIG-OH [Compound 1],safety and tolerability,SLE subjects,safe and well tolerated
same,solubility,[1]; 30% (w/w) PEG 400,5000 to 9000 µg/mL
same,solubility,[1]; 30% DMA (dimethyl-acetamide) solution,5000 to 9000 µg/mL
same,solubility,[1]; Human Serum Albumin solution,1000 µg/mL
same,solubility,[1]; Hydroxypropyl-β-cyclodextrin solution,~10000 µg/mL
same,solubility,"[1]; L-Arginine, resulting pH above 9",at the desired level
same,solubility,"[1]; Polysorbate 20 / Polysorbate 80 solution, up to 10%",≤ 2000 µg/mL
same,solubility,[1]; Sulfobutylether-β-cyclodextrin (Captisol) solution,~2500 µg/mL
same,effect on solubility,"[1]; bulking agents Mannitol, Sorbitol, Dextran, alone and combined",did not improve the solubility
same,stability versus pH,"[1]; initial tests, limits of desired pH levels",less stable at the basic pH range
same,effect on solubility,"[1]; non aqueous solvents Ethanol, Glycerin, Propylene glycol, Chremophore and combinations",did not increase the solubility
same,"Percent Inhibition of proliferation, Mean ± SD",[2],68.12 ± 9.57%
same,inhibition of proliferative responses to human 16/6Id mAb,[2]; FIG. 10,inhibited efficiently
same,inhibition of proliferative responses to human 16/6Id mAb,[2]; FIG. 11,did inhibit efficiently
same,responders whose PBL proliferation was inhibited (above 50%),[2]; of the 19 responders tested,84.2%
